Source: patent US12059420B2 (BRISTOL-MYERS SQUIBB COMPANY, priority 2018, dated 2024)
Structures can show the parent of a compound that is named as a salt.

biological target: T1, human IDO1 (Homo sapiens, UniProt P14902); experiment: IDO inhibition assay in HEK293 cells stably expressing human IDO1 (kynurenine production, Ehrlich reagent, absorbance 490 nm); assay type: cell-based; details: 20 hours incubation with compound, 500 nM reference standard = 100% inhibition, read-out: IDO1 HEK Human IC50
T1 construct: expressed in transfected cells
T1 sequence (P14902 whole entry): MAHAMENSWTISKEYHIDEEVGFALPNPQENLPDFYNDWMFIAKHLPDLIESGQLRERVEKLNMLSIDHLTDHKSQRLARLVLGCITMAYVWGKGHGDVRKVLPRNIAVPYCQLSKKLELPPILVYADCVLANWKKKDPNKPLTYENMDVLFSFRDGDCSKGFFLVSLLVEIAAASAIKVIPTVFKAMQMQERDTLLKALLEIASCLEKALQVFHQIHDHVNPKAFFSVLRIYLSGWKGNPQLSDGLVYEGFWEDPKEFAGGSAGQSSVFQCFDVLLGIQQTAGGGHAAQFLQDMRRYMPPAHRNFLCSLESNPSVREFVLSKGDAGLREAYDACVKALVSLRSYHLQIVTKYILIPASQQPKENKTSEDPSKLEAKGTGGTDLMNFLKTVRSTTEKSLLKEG
Summary of the method: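 Kynurenine output of stably IDO1-transfected HEK293 cells was measured by absorbance at 490 nm after mixing supernatant with 0.2% Ehrlich reagent, following TCA stop (0.2% final, 50° C., 30 min). Cells were incubated 20 hours with compound. Inhibition was scaled between DMSO and 500 nM reference standard.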

Point of comparison: `CCCN(CC1CC1)c1nc(NC(=O)Nc2ccc(C)cc2)cc(-c2ccccc2-c2nnn[nH]2)n1` [Example 66, 1-(6-(2-(1H-tetrazol-5-yl)phenyl)-2-((cyclopropylmethyl)(propyl)amino)pyrimidin-4-yl)-3-(p-tolyl)urea, TFA], IC50 440 nM. Against it:
- CCCN(c1cc(NC(=O)Nc2ccc(C)cc2)cc(-c2ccccc2C(=O)O)n1)C1CCCCC1 [Example 257, 2-(6-(cyclohexyl(propyl)amino)-4-(3-(p-tolyl)ureido)pyridin-2-yl)benzoic acid] — 4.3-fold higher, 1890 nM
- CCCN(Cc1ccccc1)c1cc(NC(=O)Nc2ccc(C)cc2)cc(-c2cc(C)ccc2-c2noc(=O)[nH]2)n1 [Example 26, 1-(2-(benzyl(propyl)amino)-6-(5-methyl-2-(5-oxo-4,5-dihydro-1,2,4-oxadiazol-3-yl)phenyl)pyridin-4-yl)-3-(p-tolyl)urea] — 37-fold lower, 11.8 nM
- CC(C)CN(Cc1ccc(F)cc1)c1cc(Nc2ccc3c(c2)OCO3)cc(-c2ccccc2-c2nnn[nH]2)n1 [Example 46, 6-(2-(1H-tetrazol-5-yl)phenyl)-N4-(benzo[d][1,3]dioxol-5-yl)-N2-(4-fluorobenzyl)-N2-isobutylpyridine-2,4-diamine] — 400-fold lower, 1.1 nM
- CCCN(Cc1ccccc1)c1cc(NC(=O)C2CCCCC2)cc(-c2cc(C)ccc2-c2nnn[nH]2)n1 [Example 304, N-(2-(Benzyl(propyl)amino)-6-(5-methyl-2-(1H-tetrazol-5-yl)phenyl)pyridin-4-yl)cyclohexanecarboxamide] — 3-fold higher, 1310 nM
- Cc1ccc(NC(=O)Nc2cc(-c3ccccc3-c3nnn[nH]3)nc(N(Cc3ccccc3)CC(C)C)c2)cc1 [Example 240, 1-(2-(2-(1H-tetrazol-5-yl)phenyl)-6-(benzyl(isobutyl)amino)pyridin-4-yl)-3-(p-tolyl)urea] — 37-fold lower, 11.9 nM
- CCCN(Cc1ccccc1)c1cc(NC(=O)Nc2ccc(C)cc2)cc(-c2ccccc2C(=O)NS(C)(=O)=O)n1 [Example 24, 2-(6-(benzyl(propyl)amino)-4-(3-(p-tolyl)ureido)pyridin-2-yl)-N-(methylsulfonyl)benzamide] — 1.7-fold lower, 256 nM
- CC(C)CN(Cc1ccccc1)c1cc(Nc2cc(F)ccc2C(=O)O)cc(-c2ccccc2-c2nnn[nH]2)n1 [Example 185, 2-((2-(2-(1H-tetrazol-5-yl)phenyl)-6-(benzyl(isobutyl)amino)pyridin-4-yl)amino)-4-fluorobenzoic acid] — 6.2-fold higher, 2740 nM
- CCC(CC(=O)O)c1cc(Nc2ccc3nc(C)sc3c2)cc(N(Cc2ccccc2)CC(C)C)n1 (single isomer, unassigned) [Example 243, 3-(6-(benzyl(isobutyl)amino)-4-((2-methylbenzo [d]thiazol-6-yl)amino)pyridin-2-yl)pentanoic acid] — 3.7-fold higher, 1610 nM
- CCN(Cc1ccccc1)c1cc(NC(=O)Nc2ccc3c(c2)OCO3)cc(-c2ccccc2-c2nnn[nH]2)n1 [Example 278] — within 1.5-fold, 478 nM
- CCCN(Cc1ccccc1)c1cc(NC(=O)Cc2cccc(OC(F)(F)F)c2)cc(-c2ccccc2-c2nn[nH]n2)n1 [Example 219] — 7.4-fold lower, 59.8 nM
- Cc1cc(F)cnc1Nc1cc(-c2ccccc2-c2nnn[nH]2)nc(N(Cc2ccccc2)CC(C)C)c1 [Example 183, 6-(2-(1H-tetrazol-5-yl)phenyl)-N2-benzyl-N4-(5-fluoro-3-methylpyridin-2-yl)-N2-isobutylpyridine-2,4-diamine] — 3.4-fold lower, 129 nM
- CCCN(Cc1ccccc1)c1cc(NC(=O)Nc2ccc(OC(F)(F)F)cc2)cc(-c2ccccc2-c2nnn[nH]2)n1 [Example 268, 1-(2-(2-(1H-tetrazol-5-yl)phenyl)-6-(benzyl(propyl)amino)pyridin-4-yl)-3-(4-(trifluoromethoxy)phenyl)urea] — 15-fold lower, 30.2 nM
- CC(C)CN(Cc1ccccc1)c1cc(Nc2ncccn2)cc(-c2ccccc2-c2nnn[nH]2)n1 [Example 141, 6-(2-(1H-tetrazol-5-yl)phenyl)-N2-benzyl-N2-isobutyl-N4-(pyrimidin-2-yl)pyridine-2,4-diamine] — 11-fold lower, 39.6 nM
- CCCCNC(=O)Nc1cc(-c2ccccc2-c2nnn[nH]2)nc(N(CCC)Cc2ccccc2)c1 [Example 264, 1-(2-(2-(1H-tetrazol-5-yl)phenyl)-6-(benzyl(propyl)amino)pyridin-4-yl)-3-butylurea] — 4.1-fold higher, 1800 nM
- CC(C)CN(Cc1ccccc1)c1cc(Nc2cnc(Cl)nc2)cc(-c2ccccc2-c2nnn[nH]2)n1 [Example 164, 6-(2-(1H-tetrazol-5-yl)phenyl)-N2-benzyl-N4-(2-chloropyrimidin-5-yl)-N2-isobutylpyridine-2,4-diamine] — 56-fold lower, 7.9 nM
- CCCN(Cc1ccccc1)c1cc(NC(=O)Nc2ccc(Cl)cc2F)cc(-c2ccccc2-c2nnn[nH]2)n1 [Example 72, 1-(2-(2-(1H-tetrazol-5-yl)phenyl)-6-(benzyl(propyl)amino)pyridin-4-yl)-3-(4-chloro-2-fluorophenyl)urea, TFA] — 52-fold lower, 8.5 nM
- CCCN(Cc1ccccc1)c1cc(NC(=O)Cc2ccc(C)cc2)cc(-c2ccccc2C(=O)NS(=O)(=O)C2CC2)n1 [Example 19, 2-(6-(benzyl(propyl)amino)-4-(2-(p-tolyl)acetamido)pyridin-2-yl)-N-(cyclopropylsulfonyl)benzamide] — within 1.5-fold, 485 nM
- CC(C)CN(Cc1ccccc1)c1cc(Nc2nc(C(F)(F)F)ccc2F)cc(-c2ccccc2-c2nnn[nH]2)n1 [Example 151, 6-(2-(1H-tetrazol-5-yl)phenyl)-N2-benzyl-N4-(3-fluoro-6-(trifluoromethyl)pyridin-2-yl)-N2-isobutylpyridine-2,4-diamine] — 1.6-fold lower, 279 nM
- CC(C)CN(Cc1ccccc1)c1cc(NC(=O)c2ccc(F)c(F)c2)cc(-c2ccccc2-c2nnn[nH]2)n1 [Example 236, N-(2-(2-(1H-tetrazol-5-yl)phenyl)-6-difluorobenzamide (benzyl(isobutyl)amino)pyridin-4-yl)-3,4-] — 1.6-fold higher, 687 nM
- CC(C)CN(Cc1ccccc1)c1cc(Nc2ccccc2Cl)cc(-c2ccccc2-c2nnn[nH]2)n1 [Example 177, 6-(2-(1H-tetrazol-5-yl)phenyl)-N2-benzyl-N4-(2-chlorophenyl)-N2-isobutylpyridine-2,4-diamine] — 25-fold lower, 17.5 nM
- CCCN(Cc1ccccc1)c1nc(NC(=O)Cc2ccc(C)cc2)cc(-c2ccccc2-c2nnn[nH]2)n1 [Example 23, N-(6-(2-(1H-tetrazol-5-yl)phenyl)-2-(benzyl(propyl)amino)pyrimidin-4-yl)-2-(p-tolyl)acetamide] — 27-fold lower, 16.2 nM
- CC(C)CN(Cc1ccccc1)c1cc(Nc2ccc(Cl)cc2F)cc(-c2ccccc2-c2nnn[nH]2)n1 [Example 180, 6-(2-(1H-tetrazol-5-yl)phenyl)-N2-benzyl-N4-(4-chloro-2-fluorophenyl)-N2-isobutylpyridine-2,4-diamine] — 200-fold lower, 2.2 nM
- CCCN(CC1CC1)c1nc(NC(=O)Cc2ccc(C)cc2)cc(-c2ccccc2-c2nnn[nH]2)n1 [Example 64, N-(6-(2-(1H-tetrazol-5-yl)phenyl)-2-((cyclopropylmethyl)(propyl)amino)pyrimidin-4-yl)-2-(p-tolyl)acetamide, TFA] — 2.7-fold lower, 161 nM
- Cc1ccc(CC(=O)Nc2cc(-c3ccccc3-c3nnn[nH]3)nc(N(CC(C)C)C3CCCCC3)n2)cc1 [Example 3, N-(6-(2-(1H-tetrazol-5-yl)phenyl)-2-(cyclohexyl(isobutyl)amino)pyrimidin-4-yl)-2-(p-tolyl)acetamide] — 17-fold lower, 26.3 nM
- CCC(CC(=O)O)c1cc(Nc2ccc3nc(C)sc3c2)cc(N(Cc2ccccc2)C(C)C)n1 (stereo not drawn) [Example 242, 3-(6-(benzyl(isopropyl)amino)-4-((2-methylbenzo[d]thiazol-6-yl)amino)pyridin-2-yl)pentanoic acid] — 2.2-fold higher, 971 nM
- CCCN(Cc1ccccc1)c1cc(NC(=O)Cc2cccs2)cc(-c2ccccc2-c2nn[nH]n2)n1 [Example 206, N-(2-(2-(2H-tetrazol-5-yl)phenyl)-6-(benzyl(propyl)amino)pyridin-4-yl)-2-(thiophen-2-yl)acetamide] — within 1.5-fold, 323 nM
- CCN(CCC(F)(F)F)c1nc(NC(=O)Nc2ccc(C)cc2)cc(-c2ccccc2-c2nnn[nH]2)n1 [Example 99, 1-(6-(2-(1H-tetrazol-5-yl)phenyl)-2-(ethyl(3,3,3-trifluoropropyl)amino)pyrimidin-4-yl)-3-(p-tolyl)urea] — 8.3-fold higher, 3660 nM
- COc1cc(F)cc(Nc2cc(-c3ccccc3-c3nnn[nH]3)nc(N(Cc3ccccc3)CC(C)C)c2)c1 [Example 197, 6-(2-(1H-tetrazol-5-yl)phenyl)-N2-benzyl-N4-(3-fluoro-5-methoxyphenyl)-N2-isobutylpyridine-2,4-diamine] — 76-fold lower, 5.8 nM
- CCN(Cc1ccccc1)c1cc(NC(=O)Nc2ccc(C(F)(F)F)cc2)cc(-c2ccccc2-c2nnn[nH]2)n1 [Example 276] — 3-fold lower, 148 nM
- CCCN(Cc1ccccc1)c1cc(NC(=O)Cc2ccccc2)cc(-c2ccccc2-c2nn[nH]n2)n1 [Example 225, N-(2-(2-(2H-tetrazol-5-yl)phenyl)-6-(benzyl(propyl)amino)pyridin-4-yl)-2-phenylacetamide] — within 1.5-fold, 364 nM
- Cc1ccc(NC(=O)Nc2cc(-c3ccccc3-c3nnn[nH]3)nc(N(CC(C)C)C3CCCCC3)c2)cc1 [Example 286, 1-(2-(2-(1H-Tetrazol-5-yl)phenyl)-6-(cyclohexyl(isobutyl)amino)pyridin-4-yl)-3-(p-tolyl)urea] — within 1.5-fold, 365 nM
- Cc1ccc(CC(=O)Nc2cc(-c3ccccc3-c3nnn[nH]3)nc(N(Cc3ccccc3)CC(C)C)n2)cc1 [Example 8, N-(6-(2-(1H-tetrazol-5-yl)phenyl)-2-(benzyl(isobutyl)amino)pyrimidin-4-yl)-2-(p-tolyl)acetamide] — 52-fold lower, 8.5 nM
